Laboratory results taken from patent publication US10308642B2, “Anti-hepatitis B virus agent” (FUJIFILM Toyama Chemical Co., Ltd., priority 2015, dated 2019).
Like-named read-outs stand apart in the source and are kept apart here.

Legend:
[1] = system: HBV; assay: Anti-HBV assay in HepG2.2.15 cells (HBV DNA by real-time PCR, HBsAg by chemiluminescent enzyme immunoassay in culture supernatant); format: cell-based; settings: Hepatitis B virus, 144 h, 6 days treatment
Experimental: The anti-HBV activity of compounds 1 to 16 was evaluated as follows by using HepG2.2.15 cells (Proc. Natl. Acad. Sci. USA, 84, 1005-1009, 1987), which are obtained by introducing the HBV genome into hepatoblastoma cell line, HepG2, and persistently produce the virus.
The following was used as a medium: DMEM/F-12,GlutaMAX(manufactured by Invitrogen)+5 μg/mL insulin (manufactured by Wako)+1% penicillin/streptomycin(manufactured by Sigma)+10 mmol/L HEPES(manufactured by Sigma)+50 μmol/L hydrocortisone(manufactured by Sigma)+10% FBS
A mixture of each test compound with dimethyl sulfoxide (DMSO) was added to the medium to obtain a final concentration of DMSO of 1% (v/v), and thus, test solutions containing the test compound in various concentrations were prepared. In addition, a test solution obtained by adding DMSO alone to the medium to obtain a final concentration of 1% (v/v) was prepared as a control without drug.
(1) The HepG2.2.15 cells were suspended in the medium and prepared a cell suspension at 1.5×10^5 cells/mL. The suspension was seeded in a 96-well microtiter plate (100 μL/well) and the plate was incubated in a 5% CO2 incubator at 37° C. for 1 day.
(2) After removing the culture supernatant, the cells were washed twice with PBS(−) (100 μL/well) and then once with the medium (100 μL/well).
(3) Each test solution was added to the plate (100 μL/well), and the plate was incubated in a 5% CO2 incubator at 37° C. for 3 days.
(4) After removing the culture supernatant, the test solution was added to the plate again (100 μL/well) and the plate was incubated in a 5% CO2 incubator at 37° C. for 3 days.
(5) The culture supernatant was collected and treated with a mixture of Buffer AL (manufactured by QIAGEN) and Proteinase K (manufactured by Invitrogen). The amount of HBV DNA in the solution was quantified by real-time PCR. In addition, the amount of HBsAg (hepatitis B surface antigen) in the culture supernatant was quantified by chemiluminescent enzyme immunoassay using a Lumipulse HBsAg-HQ (manufactured by Fujirebio Inc.). The relative viral load (%) of a well with the compound to a well without the compound was calculated. An IC50 of each compound was calculated using the FORECAST function (linear regression method) of Microsoft Excel 2007 by plotting the logarithm of the concentration against the relative viral load as a real number.

[2] = system: HBV; assay: Anti-HBV assay in PXB-cells (fresh human hepatocytes from PXB mouse infected with HBV genotype AeUS); format: cell-based, hepatitis B virus (HBV); settings: 10 μmol/L
Experimental: The anti-HBV activity of compound 8 was evaluated as follows by using fresh human hepatocyte (The PXB-cells were produced by PhenixBio Co., Ltd.) derived from a PXB mouse (a chimeric mouse with human hepatocyte).
The following was used as a medium:
500 mL DMEM (manufactured by Sigma)+0.25 μg/mL insulin (manufactured by Wako)+1% penicillin/streptomycin. (manufactured by Sigma)+20 mmol/L HEPES (manufactured by Sigma)+15 μg/mL L-proline (manufactured by Sigma)+50 nmol/L dexamethasone (manufactured by Sigma)+5 ng/mL EGF (manufactured by Peprotech)+0.1 mmol/L ascorbic acid 2-phosphate (manufactured by Wako)+10% FBS+2% DMSO
Compound 8 was further added to the medium to prepare a 10 μmol/L test solution.
(1) The PXB-cells seeded at a 2.1×10^5 cells/cm^2 in a 48-well microliter plate were incubated in a 5% CO2 incubator at 37° C. for 5 days.
(2) HBV derived from PXB mouse serum (genotype AeUS) was added to the medium supplemented with 4% PEG-8000. The PXB cells were infected with this solution at about 10 copies/cell (250 μL/well) and the plate was incubated in a 5% CO2 incubator at 37° C. for 1 day.
(3) After the culture supernatant had been removed, the cells were washed three times with DMEM supplemented with 10% FBS and 1% penicillin/streptomycin. The medium was added to the plate (250 μL/well) and the plate was incubated in a 5% CO2 incubator at 37° C. for 1 day.
(4) After removing the culture supernatant, the cells were washed three times with DMEM supplemented with 10% FBS and 1% penicillin/streptomycin. […]
(11) The collected culture supernatant on day 32 post infection was purified using a QIAamp DNA Blood Mini Kit (manufactured by QIAGEN) and the amount of HVB DNA was quantified by real-time PCR. In addition, the amount of HBsAg (hepatitis B surface antigen) in the culture supernatant was quantified by chemiluminescent enzyme immunoassay using a Lumipulse HBsAg-HQ (manufactured by Fujirebio Inc.). The relative viral load (%) of a well with the compound to a well without the compound was calculated.

[3] = HBV DNA in culture supernatant, real-time PCR, read-out: IC50 (μM) HBV-DNA
[4] = HBsAg in culture supernatant, chemiluminescent enzyme immunoassay, read-out: IC50 (μM) HBsAg
[5] = culture supernatant on day 32 post infection, relative to well without compound

Row | Structure (SMILES) | IC50 [1, 3] [µM] | IC50 [1, 4] [µM] | relative viral load with respect to the amount of HBV DNA [2, 5] [%] | relative viral load with respect to the amount of HBsAg [2, 5] [%] | anti-HBV activity ([2]; statement in words)
1 | O=C(O)c1cn(-c2ccc(F)cc2F)c(-c2ccc(N3CCCC3)cc2)cc1=O [Compound 4] | 0.088 | 2.1 |  |  | 
2 | CNc1ccc(-c2cc(=O)c(C(=O)O)cn2-c2ccc(F)cc2)cc1 [Compound 16] | 7.9 | 35 |  |  | 
3 | O=C(O)c1cn(-c2ccc(F)cc2)c(-c2ccc(-c3cccs3)cc2)cc1=O [Compound 14] | 0.91 | 4.2 |  |  | 
4 | CN(C)c1ccc(-c2cc(=O)c(C(=O)O)cn2-c2ccc3c(c2)OCO3)cc1 [Compound 8] | 0.25 | 1.2 | 16 | 29 | excellent anti-HBV activity
5 | CN(C)c1ccc(-c2cc(=O)c(C(=O)O)cn2-c2ccccc2O)cc1 [Compound 10] | 2.1 | 6.9 |  |  | 
6 | Cc1cc(O)ccc1-n1cc(C(=O)O)c(=O)cc1C1CCC(Br)C(Br)C1 (centres unmarked) [Compound 13] | 0.49 | 1.8 |  |  | 
7 | CN(C)c1ccc(-c2cc(=O)c(C(=O)O)cn2-c2cc(Cl)c(O)c(Cl)c2)cc1 [Compound 15] | 4.5 | 11 |  |  | 
8 | O=C(O)c1cn(-c2ccc(F)cc2F)c(-c2cc3ccccc3s2)cc1=O [Compound 9] | 0.23 | 3.6 |  |  | 
9 | O=C(O)c1cn(-c2ccc(F)cc2)c(-c2ccc(N3CCCC3)cc2)cc1=O [Compound 1] | 0.051 | 1.1 |  |  | 
10 | COc1ccc(-n2cc(C(=O)O)c(=O)cc2-c2ccc(N(C)C)cc2)c(F)c1 [Compound 12] | 1.4 | 4.9 |  |  | 
11 | CN(C)c1ccc(-c2cc(=O)c(C(=O)O)cn2-c2cccc(F)c2)cc1 [Compound 3] | 0.86 | 5.7 |  |  | 
12 | Cc1cc(-n2cc(C(=O)O)c(=O)cc2-c2ccc(N(C)C)cc2)ccc1O [Compound 11] | 0.8 | 3.7 |  |  | 
13 | CN(C)c1ccc(-c2cc(=O)c(C(=O)O)cn2-c2ccccc2F)cc1 [Compound 7] | 1.1 | 4.6 |  |  | 
14 | COc1ccc(-n2cc(C(=O)O)c(=O)cc2-c2ccc(N(C)C)cc2)cc1 [Compound 5] | 0.33 | 4.6 |  |  | 
15 | O=C(O)c1cn(-c2ccc(F)cc2)c(-c2sccc2-c2ccc([N+](=O)[O-])cc2)cc1=O [Compound 2] | 0.16 | 0.79 |  |  | 
16 | O=C(O)c1cn(-c2ccc(F)cc2)c(-c2cc3ccccc3s2)cc1=O [Compound 6] | 1.1 | 5.8 |  |  | 
